Legend:
Type in all cases: cell-based
SCD5 = target: T1, SCD5 (Homo sapiens, UniProt Q86SK9); assay: Growth inhibition of humanized yeast strain expressing SCD5 as sole desaturase
T1 construct: host or cells: S. cerevisiae ole1Δ strain (W303 pdr1Δ pdr3Δ background), plasmid pRS316 with TDH3 promoter and CYC1 terminator
T1 sequence (Q86SK9 1-330): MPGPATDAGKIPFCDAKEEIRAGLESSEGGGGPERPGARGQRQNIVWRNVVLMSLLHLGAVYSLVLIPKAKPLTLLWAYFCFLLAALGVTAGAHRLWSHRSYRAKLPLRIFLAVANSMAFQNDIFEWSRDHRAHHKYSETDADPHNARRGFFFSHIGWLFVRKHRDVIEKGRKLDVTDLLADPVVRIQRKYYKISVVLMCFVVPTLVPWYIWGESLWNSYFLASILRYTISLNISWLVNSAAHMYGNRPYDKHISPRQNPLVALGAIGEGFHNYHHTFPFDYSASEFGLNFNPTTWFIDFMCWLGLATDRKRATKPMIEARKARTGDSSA
How it was run: (§1)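 OD600 growth read-out. ole1Δ yeast, pdr1Δ pdr3Δ, with Ole1/SCD1/SCD5 on a plasmid; SX-Ura media throughout; 2× cell density 0.02 in CSM-Galactose; DMSO compound dilutions; humidified 30° C.; Ole1 stopped at 24 h, SCD1/SCD5 at 40 h.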

Ole1 = target: T2, Ole1 (Saccharomyces cerevisiae, UniProt P21147); assay: Growth inhibition of yeast strain expressing Ole1 as sole desaturase; conditions: for IC50 / OLE1 % Max Inhibition: yeast strain expressing Ole1 as sole desaturase
T2 construct: expressed in transfected cells; host or cells: S. cerevisiae ole1Δ strain (W303 pdr1Δ pdr3Δ background), plasmid pRS316 with TDH3 promoter and CYC1 terminator
T2 sequence (P21147 1-510): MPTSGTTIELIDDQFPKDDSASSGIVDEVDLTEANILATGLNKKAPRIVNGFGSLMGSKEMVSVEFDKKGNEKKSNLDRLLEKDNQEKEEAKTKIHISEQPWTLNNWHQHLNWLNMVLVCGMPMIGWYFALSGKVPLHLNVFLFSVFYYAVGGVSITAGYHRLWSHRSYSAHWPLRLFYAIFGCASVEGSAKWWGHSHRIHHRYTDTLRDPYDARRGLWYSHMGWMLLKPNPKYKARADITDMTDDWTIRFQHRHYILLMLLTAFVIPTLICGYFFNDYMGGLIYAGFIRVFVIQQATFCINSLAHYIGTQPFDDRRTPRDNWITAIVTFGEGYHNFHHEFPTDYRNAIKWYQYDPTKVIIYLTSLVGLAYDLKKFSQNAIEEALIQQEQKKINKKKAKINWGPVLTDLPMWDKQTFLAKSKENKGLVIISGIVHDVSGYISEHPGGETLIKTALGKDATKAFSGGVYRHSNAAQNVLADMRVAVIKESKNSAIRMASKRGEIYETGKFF
Procedure: Strain oleΔ (yeast ole1 deletion mutant) was constructed by deleting OLE1 with NAT-MX6 in BY4741, amplifying the deletion cassette from the genomic DNA of the resulting strain with primers flanking the ORF by 1000 bp upstream and downstream, transforming the resulting deletion cassette into W303 pdr1Δ pdr3Δ, and plating transformants on YPD media containing G418 (200 μg/mL) and nourseothricin ([…]) with 0.01% TWEEN®-20 and 0.5 mM oleic and palmitoleic acids.
The coding sequence of yeast OLE1 was also cloned into this plasmid). These clones were then transformed into the ole1Δ strain and plated on CSM-Ura media (CSM lacking uracil) with 2% glucose (w/v) and independent colonies were isolated and amplified.
All compound profiling experiments were performed using the same basic protocol. Different genetic backgrounds (e.g., gene deletions) or conditions (e.g., addition of oleic and palmitoleic acid) were replaced as indicated below.
Yeast were cultured using standard techniques in complete synthetic media (CSM) and yeast nitrogen base supplemented with 2% (w/v) carbon source (glucose, raffinose, or galactose) to regulate the expression of the toxic disease protein. An initial starter culture was inoculated in 3 mL CSM-Glucose media and incubated overnight in a 30° C. shaker incubator (225 rpm). Saturated morning cultures were then diluted 1:20 in fresh CSM-Raffinose media and grown for 6 h to an OD600 (optical density) of ˜0.4-0.8 at 30° C. with shaking.
Compound administration was performed in two separate steps. First, 15 μL of CSM-Galactose (induces expression of toxic protein) was dispensed into clear 384 well assay plates using a MULTIDROP™ Combi reagent dispenser. […] The cultures described above were then diluted to a 2× concentration (0.03 and 0.08 for alpha-synuclein and ApoE, final ODsoo of 0.015 and 0.04) in CSM-Galactose. For wild-type and Ole1/SCD1/SCD5 plasmid-containing strains, the 2× cell density was 0.02. […] For 96-well assays (FIGS. 1A and 1B), compound dilutions in DMSO were generated in 96 well plates and 1 μL was manually pipetted into 96 well clear bottom assay plates.
For experiments using a plasmid-borne copy of Ole1, SCD1, or SCD5 (FIGS. 3B, 6, and 7), media lacking uracil (SX-Ura, where X is glucose, raffinose, or galactose), was used for all steps of the compound profiling protocol to ensure its maintenance throughout the assay.
After yeast delivery, assay plates were incubated under humidified conditions at 30° C. for 24 to 40 h. ApoE4 rescue experiments were stopped at 24 h, aSyn experiments at 40 h, Ole1 at 24 h, and SCD1/SCD5 at 40 h. The growth of yeast was monitored by reading the ODsoo of each well using a microplate reader (Perkin Elmer EnVision™).

SCD1 = target: T3, SCD1 (Homo sapiens, UniProt O00767); assay: Growth inhibition of humanized yeast strain expressing SCD1 as sole desaturase
T3 construct: host or cells: S. cerevisiae ole1Δ strain (W303 pdr1Δ pdr3Δ background), plasmid pRS316 with TDH3 promoter and CYC1 terminator
T3 sequence (O00767 1-359): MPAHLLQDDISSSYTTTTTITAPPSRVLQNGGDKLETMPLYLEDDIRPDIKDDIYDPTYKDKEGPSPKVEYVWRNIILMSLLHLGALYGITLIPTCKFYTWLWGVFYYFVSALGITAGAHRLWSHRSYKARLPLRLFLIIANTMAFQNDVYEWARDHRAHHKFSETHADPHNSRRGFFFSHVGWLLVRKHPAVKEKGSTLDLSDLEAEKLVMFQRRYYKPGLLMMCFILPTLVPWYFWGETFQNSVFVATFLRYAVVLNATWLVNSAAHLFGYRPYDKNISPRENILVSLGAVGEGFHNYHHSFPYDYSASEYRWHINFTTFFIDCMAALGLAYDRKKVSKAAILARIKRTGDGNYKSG
How it was run: as §1

[1] = humanized yeast strain expressing SCD5
[2] = humanized yeast strain expressing SCD1
[3] = growth inhibition of humanized yeast strain expressing human SCD5
[4] = growth inhibition of humanized yeast strain expressing human SCD1

CC(C)n1ncc2ccc(-c3noc(C4CCN(C(=O)c5ccccc5)CC4)n3)cc21 [Compound 346]
IC50 (SCD5; [1]): > 45 µM | SCD5 % Max Inhibition (SCD5; [1]): 1.1% | IC50 (Ole1): > 45 µM | OLE1 % Max Inhibition (Ole1): 12.12%

CC(C)n1ncc2ccc(-c3noc(C4CCN(C(=O)c5cccc(F)c5)CC4)n3)cc21 [Compound 344]
IC50 (SCD5; [1]): > 45 µM | SCD5 % Max Inhibition (SCD5; [1]): 1.1% | IC50 (Ole1): > 45 µM | OLE1 % Max Inhibition (Ole1): 7.14%

CC(C)n1ncc2ccc(-c3noc(N4CCN(C(=O)OC(C)(C)C)CC4)n3)cc21 [Compound 349]
IC50 (SCD5; [1]): > 45 µM | SCD5 % Max Inhibition (SCD5; [1]): 0.2% | IC50 (Ole1): > 45 µM | OLE1 % Max Inhibition (Ole1): 84.00%

O=C(O)Cn1nnc(-c2cc(N3CCC(Oc4cc(F)ccc4Br)CC3)no2)n1 [MK-8245, reference compound]
half-maximal inhibitory concentration (IC50) (SCD5; SCD5 humanized strain, FIG. 6): low nanomolar | growth of yeast expressing OLE1 in presence of inhibitor (Ole1; FIG. 6): resistant

O=C(C1CC(=O)N(c2cccc(Cl)c2)C1)N1CCC(c2nc(Cl)no2)CC1 (stereo not drawn) [Compound 348]
SCD5 % Max Inhibition (SCD5; [1]): 59.2% | IC50 (Ole1): > 45 µM | OLE1 % Max Inhibition (Ole1): 74.78%

O=C(c1ccccc1)N1CCC(c2nc(Cl)no2)CC1 [Compound 351]
SCD5 % Max Inhibition (SCD5; [1]): 57.3% | IC50 (Ole1): > 45 µM | OLE1 % Max Inhibition (Ole1): 68.60%

CC(=O)N1CC(n2ncc3ccc(-c4nc(N5CCNCC5)no4)cc32)C1 [Compound 937]
IC50 (SCD5; humanized yeast strain, 40 h): > 45 µM | IC50 (SCD1; humanized yeast strain, 40 h): > 45 µM

COC(=O)N1CCC(c2noc(-c3ccc4cnn(C5CS(=O)(=O)C5)c4c3)n2)CC1 [Compound 1000]
IC50 (SCD5; humanized yeast strain, 40 h): 0.65 µM | IC50 (SCD1; humanized yeast strain, 40 h): > 45 µM

CC(C)(C)OC(=O)N1CC(n2ncc3ccc(-c4nc(N5CCn6c(Cl)cnc6C5)no4)cc32)C1 [Compound 925]
IC50 (SCD5; humanized yeast strain, 40 h): > 45 µM | IC50 (SCD1; humanized yeast strain, 40 h): > 45 µM

CN(c1cc(-c2nc(C3CCN(C(=O)C4CC4)CC3)no2)ccn1)C1COC1 [Compound 1125]
IC50 (SCD5; humanized yeast strain, 40 h): 0.523 µM | IC50 (SCD1; humanized yeast strain, 40 h): > 45 µM

CC(C)n1ncc2ccc(-c3noc(C4CCN(C(=O)OC5(C)CC5)CC4(F)F)n3)cc21 (stereo not drawn) [Compound 584]
IC50 (SCD5; [1]): 5.34 µM | IC50 (SCD1; [2]): > 45 µM

CC(C)(C)OC(=O)N1CCC(c2nc(-c3ccc4c(c3)N(C3COC3)C(=O)CC4)no2)CC1 [Compound 662]
IC50 (SCD5; [3]): > 45 µM | IC50 (SCD1; [4]): > 45 µM

CC(C)(C)OC(=O)N1CCC(c2nc(-c3cccc(C4CCCOC4)c3)no2)CC1 (stereo not drawn) [Compound 824]
IC50 (SCD5; humanized yeast strain, 40 h): 0.932 µM | IC50 (SCD1; humanized yeast strain, 40 h): > 45 µM

COC(=O)N1CCC(c2nc(N3CCc4cnn(C(C)C)c4C3)no2)CC1 [Compound 908]
IC50 (SCD5; humanized yeast strain, 40 h): 0.19 µM | IC50 (SCD1; humanized yeast strain, 40 h): > 45 µM

CC(C)(C)OC(=O)N1CCN(c2noc(-c3cccc(C4CCCO4)c3)n2)CC1 (stereo not drawn) [Compound 785]
IC50 (SCD5; humanized yeast strain, 40 h): 0.041 µM | IC50 (SCD1; humanized yeast strain, 40 h): 9.21 µM

CC(C)n1ncc2ccc(-c3nc(C4CN(C(=O)OC(C)(C)C)C4)no3)cc21 [Compound 605]
IC50 (SCD5; [1]): 0.513 µM | IC50 (SCD1; [2]): 31.8 µM

O=C(OC1CC1)N1CCC(c2nc(-c3ccc4cnn(C5COC5)c4c3)no2)CC1 [Compound 618]
IC50 (SCD5; [3]): 0.101 µM | IC50 (SCD1; [4]): > 45 µM

CC(C)n1cc2c(n1)CN(c1noc(C3CCN(C(=O)OC(C)(C)C)CC3)n1)CC2 [Compound 826]
IC50 (SCD5; humanized yeast strain, 40 h): 1.99 µM | IC50 (SCD1; humanized yeast strain, 40 h): > 45 µM

CC(C)n1ncc2ccc(-c3noc(C4CCN(C(=O)c5ccc(Cl)cc5)CC4)n3)cc21 [Compound 363]
IC50 (SCD5; [1]): > 45 µM | SCD5 % Max Inhibition (SCD5; [1]): 1.99% | SCD1 % Max Inhibition (SCD1; [2]): 64.44%

CC(C)(C)OC(=O)N1CCC(c2noc(-c3ccc(N4CCOCC4)cc3)n2)CC1 [Compound 1150]
IC50 (SCD5; humanized yeast strain, 40 h): > 45 µM | IC50 (SCD1; humanized yeast strain, 40 h): > 45 µM

COC(=O)N1CCC(c2noc(-c3ccc4oc(=O)n(C5COC5)c4c3)n2)CC1 [Compound 1031]
IC50 (SCD5; humanized yeast strain, 40 h): 1.13 µM | IC50 (SCD1; humanized yeast strain, 40 h): > 45 µM

O=C(C1CCC1)N1CCC(c2noc(-c3cccc(N4CCOCC4)n3)n2)CC1 [Compound 1103]
IC50 (SCD5; humanized yeast strain, 40 h): 23.4 µM | IC50 (SCD1; humanized yeast strain, 40 h): > 45 µM

COC(=O)N1CCN(c2noc(-c3ccnc(NC4COC4)c3)n2)CC1 [Compound 947]
IC50 (SCD5; humanized yeast strain, 40 h): > 45 µM | IC50 (SCD1; humanized yeast strain, 40 h): > 45 µM

COC(=O)N1CCC(c2nc(-c3ccc4onc(C(C)C)c4c3)no2)CC1 [Compound 646]
IC50 (SCD5; [3]): 1.18 µM | IC50 (SCD1; [4]): > 45 µM

CC(C)n1ncc2cnc(-c3cc(C4CCN(C(=O)OC(C)(C)C)CC4)on3)cc21 [Compound 885]
IC50 (SCD5; humanized yeast strain, 40 h): 0.01 µM | IC50 (SCD1; humanized yeast strain, 40 h): 25.4 µM

CC(C)n1ncc2ccc(-c3noc(C4CCN(C(=O)N5CCCC5(C)CO)CC4)n3)cc21 (stereo not drawn) [Compound 687]
IC50 (SCD5; [3]): > 45 µM | IC50 (SCD1; [4]): > 45 µM

CC(C)(C)OC(=O)N1CCC(c2nc(-c3ccccc3)no2)CC1 [Compound 808]
IC50 (SCD5; humanized yeast strain, 40 h): 5.82 µM | IC50 (SCD1; humanized yeast strain, 40 h): > 45 µM

CC(C)n1ncc2ccc(-c3nc(N4CCN(C(=O)CC5CC5)CC4)no3)cc21 [Compound 874]
IC50 (SCD5; humanized yeast strain, 40 h): 0.05 µM | IC50 (SCD1; humanized yeast strain, 40 h): > 45 µM

CC(C)n1ncc2ccc(-c3noc([C@H]4CC[C@H](O)CC4)n3)cc21 [Compound 634]
IC50 (SCD5; [3]): ≥ 45 µM | IC50 (SCD1; [4]): > 45 µM

COC(=O)N1CCN(c2noc(-c3cccc(OC4COC4)c3)n2)CC1 [Compound 1013]
IC50 (SCD5; humanized yeast strain, 40 h): 0.367 µM | IC50 (SCD1; humanized yeast strain, 40 h): > 45 µM
